The results in this text go back to US20220339257A1, “METHODS TO INCREASE THE SENSITIVITY AND REVERSING THE RESISTANCE TO DRUGS” (Biomarker Strategies, LLC, priority 2019, published 2022).

Format in all cases: cell-based
The test system of one test is A-253 cells. The experiment in a line: Western blot of protein biomarkers. Conditions: spermidine (50 μM)+GM-CSF (50 ng/mL). The method, then:
(§1) MTA and EM effects on protein biomarker expression were measured by western blotting. For the assay cell lines (Ca9-22, PE/CA-PJ15, HTB-38, HPAF-II, CAL27, BICR-16, A-253, Calu-6, PC-9, H1838, RPMI-7951 and A7) were cultured and treated with doses of MTAs alone, EMs alone and in combination and then lysed for protein analysis. This method can readily be conducted under adherent or suspension conditions, manually or on automated instruments, such as SnapPath. A total of 0.3×10^6 cells per well were seeded in 6 well plates with 10% FBS-containing media and incubated for 24 hours. Cells were then treated with MTA and/or EM concentrations for 24 hours. For total protein extraction, briefly, each sample media was collected, and wells were washed with HMS, and the wash was combined with its respective media collection. Cells were then detached using Accutase solution and again collected in its respective sample media and another HMS well wash and collection was performed. All cell solutions were centrifuged, washed with ice-cold PBS, and centrifuged again. Cell pellets were lysed in 250 μL of ice-cold 1× lysis buffer with protease and phosphatase inhibitor cocktails and incubated for 10 minutes on ice. Lysates were clarified with a centrifugation (14,000 rpm) for 10 minutes at 4° C. Cell lysates were quantified using Bio-Rad DC Protein Assay (Bio-Rad Cat. #5000116).
(§2) For all western blots, an equal amount of protein (3-5 μg) was loaded into SDS-polyacrylamide gels (Mini-Protean TGX Precast Gel; Bio-Rad, e.g. 7.5%, Cat. #4561024; 10%, Cat. #4561035; 12%, Cat. #4561045; or 4-15%, Cat. #4561085). Proteins were separated at 215V for at least 30 minutes in 1× Tris/Glycine/SDS buffer (Bio-Rad Cat. #1610772) and transferred to PVDF membranes using a Trans-Blot Turbo (Bio-Rad Cat. #1704155) for 7 minutes in transfer buffer (Trans-Blot Turbo Transfer Kit, Bio-Rad Cat. #1704273). Blots were blocked at room temperature for 1 hour with 5% non-fat dry milk in tris-buffered saline with Tween 20 (TBST; 15 mM Tris-HCl, pH 7.5, 200mMNaCl and 0.1% Tween 20). Membranes were incubated with primary antibodies at 4° C. overnight and at room temperature for 1 hour the next day; all primary antibodies were diluted following manufacturer's specifications in TBST with either 5% BSA or 5% non-fat dry milk. Membranes were washed in TBST for 5 minutes, three times, and incubated with HRP-conjugated secondary antibodies diluted 1:5000 in TBST with 5% non-fat dry milk at room temperature for 1 hour (anti-rabbit IgG, Bio-Rad Cat. #1706515; or anti-mouse IgG, Bio-Rad Cat. #1706516). Membranes were then washed in TBST for 10 minutes, three times, and target proteins were identified using Clarity Western ECL Substrate (Bio-Rad Cat. #1705061) on autoradiography film (GenHunter Cat. #B581, Nashville, Tenn., USA). Other assay types, such as Luminex multiplexed immunoassays, ICC, IHC, flow cytometry, etc. can be used readily.
For orientation: In western blotting, separated proteins are transferred to a membrane and probed.

Test [1] relates to panel of cell lines that included NSCLC, HNSCC, melanoma, and CRC. The experiment in a line: WST8 in vitro sensitivity to MTAs with and without EM. The method, then:
Day 1: cells were harvested cells from flask (4 mL accutase for T175 for 3-5 minutes), and spin down for 5 mins at 1200 rpm. The supernatant was poured off, and the pellet gently resuspended in 1 mL media. Countess counts were performed, and the cells were diluted in media (10% FBS). With multi-channel pipette, 2500 cells were seeded in 100 uL of media (10% FBS) in each well of 96 well plate. The cells were let to adhere and grow for 24 hours. Day 2: serial drug dilutions of MTAs+/−EMs at 5× of concentrations (as done above) were performed in media (10% FBS). 20 uL of media form each well of the 96 well plate (80 uL media left in wells) was removed, and 20 uL of appropriate 5× drug dilutions was added to each respective well (for a 1× conc). The cells were incubated with drug for 72 hours in 37C incubator. Day 5: 10 uL of WST-8 reagent was added to each well of the 96 well plate and mixed gently. the plates were incubated up to 4 hours at 37C in dark, and absorbance readings were taken at […] and 600 nm wavelengths at 1, 2, 3 and 4h, until control absorbance levels were 1.5-2.0).
We used a panel of cell lines that included NSCLC, HNSCC, melanoma, and CRC. These cell lines are a good model system harboring similar (epi)genetic changes found in patients' tumors. We used the WST8 assay to determine the in vitro sensitivity to various MTAs with and without EM1.

Test [2] has as its system H1975 (EGFR-double mutant line). The test can be described thus: MTT cell survival assay. The conditions noted are these: erlotinib 14 μM alone; H1975; 72 hours. The protocol: Cells (10^4 cells/well) were grown in 96-well plates and exposed for 72 hours to different doses of erlotinib, alone or in combination with EM2. The percentage of cell survival was determined using the 3-(4, 5-dimethylthiazol-2-yl)-2, 5-diphenyltetrazolium bromide (MTT). Single drug alone and vehicle were kept as controls.
(In general: Tetrazolium assays rely on reduction of a dye to a coloured formazan, in cell work by metabolically active cells.)

A further test deals with Ca-922 cell line. The test can be described thus: HoPI live cell staining. Also on record: concentration or dose not given beside the values. The conditions noted are these: single agent, 24 hours. The text has this:
(§3) A double stain of Hoechst 33342 and propidium iodide allows for the determination of cell viability with high specificity and low background noise, as compared to trypan blue staining. Hoechst 33342 is a cell permeable blue fluorescent nuclear stain which will stain all cell types. Propidium iodide is a cell impermeable red fluorescent nuclear stain that will only bind to the nuclei of cells with compromised membranes (dead cells). The staining can be performed rapidly on live cell suspensions within 15 minutes. 25 uL of 4× Hoechst 33342 Solution (40 ug/mL) and 25 uL of 4×Propidium Iodide Solution are added to 50 uL of cell suspension. The suspension was gently mixed 10 times and 50 uL was immediately transferred to a microfluidic cell counting chip. A 365 nm LED was used to excite both Hoechst 33342 and propidium iodide. Images of the cells were captured using a 10× objective lens on an Olympus microscope using a Canon EOS 6D camera using an ISO of 800 and an exposure of 2 seconds; both JPEG and RAW images were saved for analysis. The blue channel was used to measure the total number of cells and the red channel was used to measure the number of dead cells. Cell counting was performed automatically by the Image Pro software (Media Cybernetics, Inc).
MTA and EM effects on apoptosis were measured by Hoechst-Propidium Iodide staining (HoPI). For the assay, cells were seeded in 6-well plates at 400K cells per well, in 2 mL of 10% FBS-containing media and incubated for 24 hours. At 24 hours, a 1 nM to […] range of MTA and/or 1 ng/mL to 1 mg/mL range of EM doses was added and incubated for 24 hours. After 24 hours incubation respective cells' media was collected, added the 1× HBSS wash from the plate in the respective tube. Adherent cells were detached by treating with Accutase for 6 minutes and collected in respective tubes. All samples were centrifuged for 5 minutes at 1200 RPM. The cell pellets were resuspended in PBS and centrifuged again for 5 minutes at 1200 RPM. Cell pellets were resuspended in 200 uL of PBS and mixed properly to get single cell suspension. 50 uL of cell suspension was added into separate tubes having 10 uL of a 2× HOPI solution (20 ug/mL Hoechst 33342 and 20 ug/mL propidium iodide solution) to get a final concentration of Hoechst 33342 and propidium iodide to […]. Make up the volume to 100 uL with 40 uL of PBS. Samples were mixed thoroughly for even cell staining and the microfluidsic chip wells were each filled with 10 uL of sample. Chips were then incubated in the dark for 20 minutes. A 365 nm LED was used to excite both Hoechst 33342 and propidium iodide as they were visualize under a microscope. Cell images were captured using a 10× objective lens on an Olympus microscope using a Canon EOS 6D camera with an ISO of 800 and an exposure of 2 seconds; both JPEG and RAW images were saved for analysis. The blue channel was used to measure the total number of cells and the red channel was used to measure the number of dead cells. For image analysis, a copy of the image was created and converted directly into an 8-bit gray scale image. A threshold was placed on the image to create a binary mask; the threshold level was 20 intensity units out of 255 intensity units. Next, a particle analysis algorithm was applied to the binary mask and a set of cellular regions (between 100 to 800 cellular regions per image) was created. The original image was then split into red, green and blue channels. The area, mean intensity, standard deviation of the mean intensity, minimum intensity, maximum intensity and perimeter were measured for each cellular region in the red channel and also in the blue channel. The green channel was discarded. To discern between live and dead cells, the maximum intensity in the red channel was used with a threshold of 100 intensity units. Double plots were created using the intensity of the blue channel (X-axis) and the intensity of the red channel (Y-axis). […]

Another test relates to RPMI-1975. The experiment in a line: HoPI live cell staining. The conditions noted are these: single agent, 24 hours.
Description: as §3
MTA and EM effects on apoptosis were measured by Hoechst-Propidium Iodide staining (HoPI). For the assay, cells were seeded in 6-well plates at 400K cells per well, in 2 mL of 10% FBS-containing media and incubated for 24 hours. At 24 hours, a 1 nM to […] range of MTA and/or 1 ng/mL to 1 mg/mL range of EM doses was added and incubated for 24 hours. After 24 hours incubation respective cells' media was collected, added the 1× HBSS wash from the plate in the respective tube. Adherent cells were detached by treating with Accutase for 6 minutes and collected in respective tubes. All samples were centrifuged for 5 minutes at 1200 RPM. […] The area, mean intensity, standard deviation of the mean intensity, minimum intensity, maximum intensity and perimeter were measured for each cellular region in the red channel and also in the blue channel. […]

The test system of the next test is PE/CA-PJ15 cells. The test can be described thus: Western blot of protein biomarkers. The conditions noted are these: spermidine (50 μM)+IL-12 (50 ng/mL). The protocol: as §1, §2

Counter-ions that a name gives are not always drawn.

Regarding “granulocyte-macrophage colony-stimulating factor [EM10]”, the Ki67 expression entry in the test on A-253 cells (compared to both MTA and EM alone) is listed as “enhanced reduction in Ki67 expression”. In the test on A-253 cells (compared to either alone), the LC3II expression entry is reported as “LC3II upregulation” and the p62 expression entry is listed as “reduction in p62”. For interleukin 6 [EM4], in test [1], the “response enhancement (in vitro sensitivity to various MTAs with and without EM, WST8)” value was “no, minimal and strong response enhancement”. For `C#Cc1cccc(Nc2ncnc3cc(OCCOC)c(OCCOC)cc23)c1` [erlotinib, Erlotinib hydrochloride, reference compound], the “cell survival (MTT), effect of erlotinib alone” value in test [2] was “absence of effect”. As to `C=CC(=O)Nc1cc(Nc2nccc(-c3cn(C)c4ccccc34)n2)c(OC)cc1N(C)CCN(C)C` [osimertinib, Osimertinib, reference compound], the “reduction in the number of live cells (HoPI)” value in the test on Ca-922 cell line is 41%. Take transforming growth factor-beta-1 [EM3]: the “response enhancement (in vitro sensitivity to various MTAs with and without EM, WST8)” value in test [1] was “no, minimal and strong response enhancement”. Consider `COc1ncc(-c2ccc3nccc(-c4ccnnc4)c3c2)cc1NS(=O)(=O)c1ccc(F)cc1F` [GSK458, Omipalisib, reference compound], for which the “reduction in the number of live cells (HoPI)” value in the test with Ca-922 cell line is 22%. Besides, the “reduction in live cells (HoPI)” value with RPMI-1975 turned out to be 30%.

B1: interleukin 12 (protein, UniProt P29459 23-219; P29460 23-328, looked up)
Interleukin-12 subunit alpha: RNLPVATPDPGMFPCLHHSQNLLRAVSNMLQKARQTLEFYPCTSEEIDHEDITKDKTSTVEACLPLELTKNESCLNSRETSFITNGSCLASRKTSFMMALCLSSIYEDLKMYQVEFKTMNAKLLMDPKRQIFLDQNMLAVIDELMQALNFNSETVPQKSSLEEPDFYKTKIKLCILLHAFRIRAVTIDRVMSYLNAS
Interleukin-12 subunit beta: IWELKKDVYVVELDWYPDAPGEMVVLTCDTPEEDGITWTLDQSSEVLGSGKTLTIQVKEFGDAGQYTCHKGGEVLSHSLLLLHKKEDGIWSTDILKDQKEPKNKTFLRCEAKNYSGRFTCWWLTTISTDLTFSVKSSRGSSDPQGVTCGAATLSAERVRGDNKEYEYSVECQEDSACPAAEESLPIEVMVDAVHKLKYENYTSSFFIRDIIKPDPPKNLQLKPLKNSRQVEVSWEYPDTWSTPHSYFSLTFCVQVQGKSKREKKDRVFTDKTSATVICRKNASISVRAQDRYYSSSWSEWASVPCS
notes: enhancer molecule, cytokine purchased from Sigma
Consider B1, for which the p62 expression result in the test with PE/CA-PJ15 cells is given as “increased expression”. For the same molecule, in the test on PE/CA-PJ15 cells (24 hours, compared to either alone), the “LC3II over LC3I expression” value is listed as “marked increase in LC3II over LC3I expression”.
